Data on ten molecules can be found in the NIST ThermoML archive (doi:10.1016/j.jct.2003.09.011).

Molecules are shown by their SMILES. ± gives the expanded uncertainty stated by the source.

A short description of the data set: activity coefficient (dimensionless); of the first substance listed, at infinite dilution; xn = mol fraction of the nth substance listed. Conditions: Liquid, Chromatography, x1 = 0.

Consider `C#CCCCC` [1-hexyne] + O=Cc1ccco1, for which the activity coefficient was determined as 6.27 ± 0.54 (278.15 K) and 5.09 ± 0.44 (298.15 K).

On to `CCCCC` [pentane] + O=Cc1ccco1, for which the activity coefficient is 24.3 ± 2.1 (278.15 K) and 21.6 ± 1.9 (298.15 K).

On to `C1CCCCCC1` [cycloheptane] + O=Cc1ccco1, for which the activity coefficient runs as follows: (278.15 K) 18.6 ± 1.6; (298.15 K) 15.5 ± 1.3.

In the case of `CCCCCC` [hexane] + O=Cc1ccco1, the activity coefficient reads like this: (278.15 K) 31.9 ± 2.8; (298.15 K) 27.8 ± 2.4.

For the molecule `CCCCCCC` [heptane] + O=Cc1ccco1, the activity coefficient runs as follows: (278.15 K) 38.1 ± 3.3; (298.15 K) 33.4 ± 2.9.

Take `C1CCCC1` [cyclopentane] + O=Cc1ccco1: the activity coefficient runs as follows: (278.15 K) 14.2 ± 1.2; (298.15 K) 13.3 ± 1.2.

`C1CCCCC1` [cyclohexane] + O=Cc1ccco1: the activity coefficient turned out to be 16.8 ± 1.5 (278.15 K) and 13.6 ± 1.2 (298.15 K).

Consider `c1ccccc1` [benzene] + O=Cc1ccco1, for which the activity coefficient runs as follows: (278.15 K) 2.55 ± 0.22; (298.15 K) 2.45 ± 0.21.

For `C=CCCCC` [hex-1-ene] + O=Cc1ccco1, the activity coefficient is, setting by setting: (278.15 K) 15.2 ± 1.3; (298.15 K) 15 ± 1.3.

As to `C#CCCCCC` [1-heptyne] + O=Cc1ccco1, the activity coefficient reads like this: (278.15 K) 20 ± 1.7; (298.15 K) 17.9 ± 1.5.
